Measurements from PMC8267472, “The Effect of Cream and Gel Vehicles on the Percutaneous Absorption and Skin Retention of a New Eugenol Derivative With Antioxidant Activity” (Frontiers in Pharmacology, 2021).
Read-outs that look alike come from different tables or passages of the source.

How the values were obtained:
[1] = Total polyphenole content by Folin-Ciocalteu method on acceptor fluid and solution after skin extraction
Protocol: The antioxidant activity of acceptor fluid taken after 24 h of permeation, and solutions obtained after skin extraction performed after the experiment was determined using the DPPH (according to the procedure described above) ([Brand-Williams et al., 1995]; [Makuch et al., 2020]), ABTS ([Makuch et al., 2020]) and Folin–Ciocalteau ([Nowak et al., 2019]; [Makuch et al., 2020]) methods. The ABTS assay is based on the generation of a blue/green ABTS radical, which is applicable to both hydrophilic and lipophilic antioxidant systems; whereas DPPH assay uses a radical dissolved in organic media and is, therefore, applicable to hydrophobic systems ([Molyneux 2004]). To determine the total content of phenolic compounds in the tested samples the method based on the use of the Folin–Ciocalteu reagent in alkaline medium was applied. The reaction is based on the spectrophotometrically recorded color change of the test solution from yellow to blue. Folin–Ciocalteu reagent was diluted tenfold with water in a dark bottle and incubated at room temperature for 60 min. […] The cuvette was sealed with a stopper and incubated for 15 min at room temperature. […]

[2] = DPPH radical reduction by ethanolic solutions of eugenol and EDChA (IC50); assay type: biochemical; conditions: ethanolic solution, 10 min incubation, 517 nm; read-out: IC50, concentration reducing 50% of free radicals (DPPH method)
Protocol: Antioxidative activity of ethanolic solutions of eugenol and its new derivative (EDChA) were determined using spectrophotometric method based on DPPH radical reduction as described elsewhere ([Brand-Williams et al., 1995]; [Makuch et al., 2020]). The absorbance at the wavelength of 517 nm was measured using Spectroquant Pharo 300 (Merck, Germany). The antioxidant activity of eugenol and its ester was measured as follows: to 2,850 µl of DPPH ethanolic solution (absorbance at 517 nm 1.00 ± 0.02) 150 µl of the sample (containing one of the tested compound at a concentration of 1.000 w/w) was added. The concentration of the analyzed sample in DPPH ethanolic solution was 0.050% w/w. The tube was wrapped in aluminum foil, sealed with a stopper and incubated for 10 min at room temperature. Each sample was prepared in triplicate. After incubation, spectrophotometric measurements were carried out at 517 nm. Solvent applied to obtain extracts was used as reference. The results were expressed as radical scavenging activity (RSA) ([Nowak et al., 2019]). For each studied compound calibration curve of RSA vs. concentration (0.006–50.000% w/v) was prepared to calculate IC50, i.e. the concentration of the compound reducing 50% of free radicals. The concentration range of the analyzed samples in DPPH ethanolic solution were 0.0003–2.5000% w/v.

[3] = In vitro skin permeation in Franz diffusion cell; assay type: in vitro ADME, porcine
Protocol: The skin permeability for vehicles containing eugenol and EDChA were assessed in a Franz diffusion cell consisted of a 2 ml donor chamber and an 8 ml acceptor chamber. The permeation area was 1 cm^2. The acceptor fluid, mixed with a magnetic stirrer, was a PBS (phosphate-buffered saline, pH 7.4) solution that maintained the physiological pH. […] Before starting the test, Franz diffusion cells were allowed to equilibrate at 37°C for 15 min. Porcine skin was used for the study due to its similar permeability properties to human skin. The skin was from a local slaughterhouse. A fresh portion of skin from the abdomen was washed several times with a solution of PBS. Skin with a thickness of 0.5 mm was cut with a dermatome, and then it was wrapped in aluminum foil and frozen at –20°C for a maximum of 3 months. […] Before the study, the skin was thawed at room temperature for about 30 min, and then it was soaked in a PBS solution for 15 min to hydrate it. In the next stage, the skin was mounted in Franz diffusion cells. The integrity of skin was checked 1 h after its installation in the Franz diffusion chamber (SES GmbH Analyze Systeme, Germany). […] To make the measurement, the tips of the probes were immersed in the donor and acceptor chambers filled with the PBS solution.
Preparations (1.000 g) containing one of the test compound (eugenol and EDChA) were placed in the donor chamber. All donor chambers were closed with a plastic stopper to prevent excessive evaporation of the vehicle. […] The samples were analyzed by high-performance liquid chromatography (HPLC).
(§1) The permeation rate was determined based on the amount of permeated compound over a given period (μg/cm^2/h).
(§2) The samples were analyzed by high-performance liquid chromatography (HPLC) with a UV detector (Knauer, Berlin, Germany). […] The flow rate of the mobile phase, consisted of acetonitrile, water, and MeOH (28:64:8, by vol), was 1 ml/min. Twenty microliters of each analyzed sample was injected onto the column.

[4] = Skin accumulation (extraction of skin after the permeation experiment); assay type: in vitro ADME, porcine; conditions: after 24 h experiment
Protocol: After completion of permeation experiment, the skin was extracted to estimate the residual amount of tested active ingredients accumulated in it. […] Extraction was carried out as follows: after the experiment was completed, the Franz diffusion chambers were dismantled, while the skin surface was washed three times with an aqueous solution of sodium lauryl sulfate (at a concentration of 0.5% w/w) to rinse of the excess of vehicle containing test compound. A patch (1 cm^2 diffusion surface) was cut from the skin prepared in this way, dried at room temperature, and then weighed and cut into smaller pieces. […] The obtained extracts were then centrifuged at 3,500 rpm for 5 min. The supernatant was analyzed by HPLC to determine the content of active ingredients, while tests on the antioxidant activity of the obtained extracts was evaluated using the DPPH, Folin–Ciocalteau, and ABTS methods.
as §1, §2

[5] = shake-flask method; ref Makuch et al., 2020; cited from earlier work
[6] = design: method as in Floegel et al., 2011; conditions: literature value; ref Floegel et al., 2011; read-out: IC50 described in the literature (DPPH); cited from earlier work

SMILES | Antioxidant activity (Folin-Ciocalteu method) of solution obtained after skin extraction ([1]; cream vehicle) [mmol GA/dm^3] | IC50 [2] [µM] | Cumulative mass of substance after 24 h of permeation test ([3]; cream vehicles, 1.000% w/w active, acceptor PBS pH 7.4, 1 cm^2) [µg] | Mass of substance in the acceptor fluid after 24 h of permeation ([3]; gel vehicles, 1.000% w/w active, acceptor PBS pH 7.4, 1 cm^2) [µg] | Skin accumulation of substance ([4]; cream vehicles) [µg/cm^2 skin] | Skin accumulation of substance ([4]; gel vehicles) [µg/cm^2 skin] | log p [5] | Total polyphenole content (folin-ciocalteu method), solution after skin extraction ([1]; cream vehicles) [mmol GA/dm^3] | Cumulative mass of substance after 24 h of permeation test ([3]; pig, 24 h, 1 % w/w, pH 7.4) [µg] | Mass of substance in the acceptor fluid after 24 h of permeation ([3]; pig, 24 h, 1 % w/w, pH 7.4) [µg] | IC50 [6] [µM]
C=CCc1ccc(OC(=O)C(Cl)Cl)c(OC)c1 [EDChA, eugenyl dichloroacetate] | 0.3 ± 0.1 | 4280 | 19.6 ± 1.8 | 28.8 ± 2.6 | 173.9 ± 8.4 | 255.9 ± 20.1 |  |  |  |  | 
C=CCc1ccc(O)c(OC)c1 [Eugenol, 4-allyl-2-methoxyphenol] |  | 6.1 |  |  |  |  | 2.20 ± 0.001 | 0.2 ± 0.1 | 20.5 ± 0.8 | 31.3 ± 4.3 | 50.4
